Key:
[1] = molecular target: glucose-6-phosphate dehydrogenase (G6PDH) (Leuconostoc mesenteroides, UniProt P11411); experiment: Native G6PDH activity; format: biochemical; conditions: increasing DBeQ concentration
Procedure: G6PDH was chemically denatured by mixing 5 μl of the G6PDH stock solution (441 μM) with 5 μl of buffer A (10 M urea, 16% glycerol, 40-mM DTT) preheated at 47 °C. The samples of G6PDH in buffer A were incubated for 5 min at 47 °C. Subsequently, 5 μl of denatured G6PDH was mixed with 95 μl of buffer B (50-mM Tris-HCl, pH 7.4, 20-mM Mg(OAc)2, 30-mM KCl, 1-mM EDTA, 1-mM β-mercaptoethanol) preheated at 47 °C to initiate protein refolding, which, under these conditions, is inefficient and leads to misfolding and aggregation of G6PDH ([69]). G6PDH aggregate production was arrested after 1 min (for refolding by KJE) or 15 min (for refolding by KJE with ClpB) by transferring into ice for 2 min. […] The plate was inserted into Synergy H1 plate reader (BioTek, Winooski, VT) with the chamber temperature at 30 °C, and the sample absorbance at 340 nm was measured after 10 min. The amount of NADPH produced was calculated based on the NADPH molar extinction coefficient, Ɛ340 = 6220 [M^−1 ⋅ cm^−1]. […]
conditions. The ATPase activity of wt ClpB was determined at 37 and 45 °C as the function of DBeQ concentration. […]
Supplementary Figure 7. […] (A) Firefly luciferase activity was determined in the absence (DMSO) or in the presence 100 µM ClpB inhibitor candidates. […] (B) G6PDH activity was determined in the presence of an increasing concentration of DBeQ and normalized to the DMSO control. […]

[2] = test system: ClpB W462F, W543F, W462F/W543F; experiment: Basal ATPase activity of ClpB Trp/Phe variants; format: biochemical, Escherichia coli; conditions: absence of casein
Procedure: To determine the ATPase activity, ClpB was diluted to 28 μg/ml (49-nM hexamer) in buffer C (50-mM Tris-HCl, pH 7.4, 20-mM MgCl2, 1-mM EDTA, 0.5-mM tris(2-carboxyethyl)phosphine [TCEP]). In some experiments, the ClpB solution was supplemented with 17.4 μg/ml (10 μM) κ-casein. The ClpB aliquots (18 μl) were mixed with 1 μl of the investigated compounds at different concentrations in 100% DMSO or with DMSO as a control. A sample without ClpB was used as a baseline control. After a 10-min preincubation at 37 or 45 °C, the ATP hydrolysis reaction was initiated by adding 1 μl of 100-mM ATP. The samples were incubated for 60 min (basal ClpB activity in the absence of κ-casein) or 15 min (in the presence of κ-casein) at 37 °C or 30 min at 45 °C in the absence of casein. For the E678Q ClpB variant, the incubation time in the presence of κ-casein was 60 min. After incubation, 15 μl of each sample was mixed with 200 μl of the ammonium molybdate/malachite green reagent ([67]) dispensed into a 96-well plate, followed by an addition of 30 μl of 34% sodium citrate ([68]). The plate was agitated inside a Synergy H1 reader (BioTek, Winooski, VT) for 15 min at room temperature, and the samples’ absorbance was measured at 630 nm. The readouts for ClpB-containing samples were corrected for absorbance of samples without ClpB, to account for nonenzymatic production of inorganic phosphate. […]

DnaK = molecular target: T1, DnaK (Escherichia coli, UniProt P0A6Y8); experiment: DnaK binding to FITC-B2 peptide, fluorescence anisotropy; conditions: FITC-B2 20 nM, increasing DBeQ
T1 construct: full-length E. coli DnaK (residues 1–638); made in house; host or cells: E. coli BL21(DE3)
Procedure: To monitor interactions between the peptide B2 and DnaK, the DnaK stock was diluted in buffer C (50-mM Tris-HCl, pH 7.4, 20-mM MgCl2, 1-mM EDTA, 0.5-mM TCEP) to a final concentration of 1 μM. DBeQ solutions in DMSO (20 μl) were mixed with 372 μl of 1-μM DnaK. After 10 min of incubation at room temperature, the samples were supplemented with 8 μl of 1-μM FITC-B2 in buffer C (FITC-Ahx-[…]-NH2) ([51]). The FITC-B2 sample without DnaK was used as a control. After a 30-min incubation at room temperature, fluorescence anisotropy of FITC-B2 was measured with a PerkinElmer LS55 (λexc = 485 nm (slit: 15 nm), λem = 521 (slit: 20 nm)).

T1 sequence (P0A6Y8 whole entry, the tested form may be a part): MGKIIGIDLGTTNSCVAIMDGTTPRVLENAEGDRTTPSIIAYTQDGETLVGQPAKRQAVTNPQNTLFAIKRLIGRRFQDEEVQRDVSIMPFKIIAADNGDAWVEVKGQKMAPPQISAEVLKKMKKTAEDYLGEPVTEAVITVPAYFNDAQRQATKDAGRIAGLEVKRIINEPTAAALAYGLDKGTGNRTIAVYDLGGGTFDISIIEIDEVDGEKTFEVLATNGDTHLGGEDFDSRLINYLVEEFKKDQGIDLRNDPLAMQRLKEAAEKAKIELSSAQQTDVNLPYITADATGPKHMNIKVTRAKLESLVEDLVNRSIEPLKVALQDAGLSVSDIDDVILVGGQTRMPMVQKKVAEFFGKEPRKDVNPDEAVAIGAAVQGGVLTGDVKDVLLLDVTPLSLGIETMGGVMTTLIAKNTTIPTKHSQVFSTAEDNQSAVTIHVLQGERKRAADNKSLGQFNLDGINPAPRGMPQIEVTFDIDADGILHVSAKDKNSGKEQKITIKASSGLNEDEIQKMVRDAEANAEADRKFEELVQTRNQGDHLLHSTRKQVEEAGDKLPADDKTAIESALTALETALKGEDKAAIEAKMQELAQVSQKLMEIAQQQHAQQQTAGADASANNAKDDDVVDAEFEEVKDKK
Chain of glucose-6-phosphate dehydrogenase (G6PDH) (P11411 whole entry): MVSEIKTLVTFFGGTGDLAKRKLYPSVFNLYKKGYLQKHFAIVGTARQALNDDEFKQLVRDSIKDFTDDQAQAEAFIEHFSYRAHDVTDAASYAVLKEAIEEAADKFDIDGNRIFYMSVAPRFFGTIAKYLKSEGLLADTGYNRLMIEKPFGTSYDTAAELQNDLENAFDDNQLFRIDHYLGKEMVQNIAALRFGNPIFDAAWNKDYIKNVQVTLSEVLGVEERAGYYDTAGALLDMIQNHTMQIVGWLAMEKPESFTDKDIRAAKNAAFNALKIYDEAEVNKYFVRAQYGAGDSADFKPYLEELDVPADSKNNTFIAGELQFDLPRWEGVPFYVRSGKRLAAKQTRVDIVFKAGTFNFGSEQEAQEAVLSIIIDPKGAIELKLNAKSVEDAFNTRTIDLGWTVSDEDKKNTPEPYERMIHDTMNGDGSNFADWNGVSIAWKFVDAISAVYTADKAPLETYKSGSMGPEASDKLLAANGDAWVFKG

Question: For `c1ccc(CNc2nc(NCc3ccccc3)c3ccccc3n2)cc1` [DBeQ, N^2,N^4-dibenzylquinazoline-2,4-diamine], which “effect on native G6PDH activity” value [1] is on record?
Answer: not affected

Question: What about the “inhibition of basal ATPase of Trp/Phe ClpB variants” value [2] of the same compound?
Answer: became sensitive to inhibition

Question: And the “suppression of DnaK binding to substrate-mimicking peptide” value (DnaK)?
Answer: did not detect

— PMC7948422, “Repurposing p97 inhibitors for chemical modulation of the bacterial ClpB–DnaK bichaperone system” (The Journal of Biological Chemistry, 2020)
